Calls of active or inactive are those of the source.
How the values were obtained:
[1] = target: Voltage-dependent T-type calcium channel subunit alpha-1H (Homo sapiens, UniProt O95180); test: human CACNA1H calcium influx blockade – cell-based, synthetic library set 2, HEK293 HH8, Fluo-4, SAR follow-up (AID 493023); assay type: functional
[2] = target: Delta-type opioid receptor (Homo sapiens, UniProt P41143); test: SAR Analysis of Antagonists of the DOR Receptor using an Image-Based Assay - Set 2. [Related pubchem assays (depositor defined):AID1777, AID1785, AID1786, AID1966, AID2133, AID2136, AID2284, AID2285, AID2357]; assay type: functional
Delta-type opioid receptor, sequence (P41143 whole entry): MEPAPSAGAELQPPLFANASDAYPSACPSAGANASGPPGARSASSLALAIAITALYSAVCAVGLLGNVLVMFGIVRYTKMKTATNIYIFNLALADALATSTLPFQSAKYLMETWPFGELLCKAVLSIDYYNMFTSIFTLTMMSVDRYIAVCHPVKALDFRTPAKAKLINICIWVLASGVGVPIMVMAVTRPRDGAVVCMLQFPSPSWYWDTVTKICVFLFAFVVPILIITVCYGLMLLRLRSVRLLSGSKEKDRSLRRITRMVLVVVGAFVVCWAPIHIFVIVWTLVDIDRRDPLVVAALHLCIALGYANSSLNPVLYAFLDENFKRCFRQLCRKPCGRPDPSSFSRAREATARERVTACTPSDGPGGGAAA

[3] = target: T1, Kappa-type opioid receptor (Homo sapiens, UniProt P41145); test: SAR analysis of small molecule agonists of the kappa opioid receptor via a luminescent beta-arrestin assay - Set 2. [Related pubchem assays (depositor defined):AID1777, AID1785, AID1786, AID1966, AID2133, AID2136, AID2284, AID449737]; assay type: functional
T1 sequence (P41145 whole entry): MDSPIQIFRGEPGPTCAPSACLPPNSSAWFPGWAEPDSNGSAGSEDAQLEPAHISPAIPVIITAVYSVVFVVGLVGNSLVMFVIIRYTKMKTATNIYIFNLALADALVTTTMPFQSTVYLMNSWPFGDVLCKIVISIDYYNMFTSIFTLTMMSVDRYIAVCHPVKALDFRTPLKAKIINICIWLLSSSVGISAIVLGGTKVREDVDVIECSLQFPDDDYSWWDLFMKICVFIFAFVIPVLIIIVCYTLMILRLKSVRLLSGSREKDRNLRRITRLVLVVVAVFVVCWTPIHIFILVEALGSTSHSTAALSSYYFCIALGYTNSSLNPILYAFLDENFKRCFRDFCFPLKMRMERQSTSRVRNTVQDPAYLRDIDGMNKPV

[4] = target: T1, Kappa-type opioid receptor; test: SAR analysis of Antagonists of the Kappa Opioid Receptor (KOR) using an Image-Based Assay - Set 2. [Related pubchem assays (depositor defined):AID1777, AID1785, AID1786, AID1966, AID2133, AID2136, AID2284, AID2285, AID2348]; assay type: functional
[5] = luciferase reporter signal suppression in cells – H4 neuroglioma cells, luminescence, dose response (AID 1990); assay type: functional, cell-based
[6] = Luminescence Cell-Based Dose Response HTS to Identify Activators of Luciferase Translation or Activity in H4-C Neuroglioblastoma Cells. [Related pubchem assays: 1829 (Project Summary), 1814 (Primary HTS)]; assay type: functional
[7] = cells; assay type: functional, cell-based
[8] = Luminescence Cell-Based Dose Retest to Confirm Activators of 5'UTR Stem-Loop Driven Alpha-Synuclein mRNA Translation in H4 Neuroglioblastoma Cells. [Related pubchem assays (depositor defined):AID1813, AID1829]; assay type: functional
[9] = alpha-synuclein stem-loop translation blockers – luminescence, H4 neuroglioblastoma cells, dose confirmation, confirmation (AID 2454); assay type: functional, cell-based;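 further: H4 neuroglioblastoma cells carrying an alpha-synuclein 5'UTR luciferase reporter; potency for inhibition of the luciferase signal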
[10] = alpha-synuclein stem-loop luciferase translation blockers – H4 neuroglioma cells, luminescence, confirmation (AID 1988); assay type: functional, cell-based
[11] = Luminescence Cell-Based Dose Response HTS to Identify Inhibitors of Luciferase Translation or Activity in H4-C Neuroglioblastoma Cells. [Related pubchem assays: 1813 (Primary HTS), 1827 (Project Summary)]; assay type: functional
[12] = Luminescence Cell-Based Dose Response HTS to Identify Inhibitors of 5'UTR Stem-Loop Driven Prion Protein mRNA Translation in H4 Neuroglioblastoma Cells. [Related pubchem assays: 1827 (Project Summary), 1813 (Primary HTS)]; assay type: functional
[13] = Luminescence Cell-Based Dose Confirmation HTS to Identify Inhibitors of 5'UTR Stem-Loop Driven Alpha-Synuclein mRNA Translation in H4 Neuroglioblastoma Cells. [Related pubchem assays: 1827 (Project Summary), 1813 (Primary HTS)]; assay type: functional
[14] = luciferase reporter signal reduction – luminescence, H4-C neuroglioblastoma cells, dose response (AID 2458); assay type: functional, cell-based;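 further: H4 neuroglioblastoma cells stably carrying a luciferase reporter gene fusion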
[15] = Luminescence Cell-Based Dose HTS Response to Identify Inhibitors of 5'UTR Stem-Loop Driven Prion Protein mRNA Translation in H4-C Neuroglioblastoma Cells. [Related pubchem assays (depositor defined):AID1814, AID1827]; assay type: functional
[16] = Luminescence Cell-Based Dose Response HTS to Identify Activators of 5'UTR Stem-Loop Driven Prion Protein mRNA Translation in H4-C Neuroglioblastoma Cells. [Related pubchem assays: 1829 (Project Summary), 1814 (Primary HTS)]; assay type: functional
[17] = test system: J774.A1; test: Confirmation of image-based Screening Assay for Inhibitors of Phagocytosis. [Related pubchem assays (depositor defined):AID1029, AID1643]; assay type: functional, cell-based; settings: Mus musculus

Voltage-dependent T-type calcium channel subunit alpha-1H, sequence (O95180 whole entry): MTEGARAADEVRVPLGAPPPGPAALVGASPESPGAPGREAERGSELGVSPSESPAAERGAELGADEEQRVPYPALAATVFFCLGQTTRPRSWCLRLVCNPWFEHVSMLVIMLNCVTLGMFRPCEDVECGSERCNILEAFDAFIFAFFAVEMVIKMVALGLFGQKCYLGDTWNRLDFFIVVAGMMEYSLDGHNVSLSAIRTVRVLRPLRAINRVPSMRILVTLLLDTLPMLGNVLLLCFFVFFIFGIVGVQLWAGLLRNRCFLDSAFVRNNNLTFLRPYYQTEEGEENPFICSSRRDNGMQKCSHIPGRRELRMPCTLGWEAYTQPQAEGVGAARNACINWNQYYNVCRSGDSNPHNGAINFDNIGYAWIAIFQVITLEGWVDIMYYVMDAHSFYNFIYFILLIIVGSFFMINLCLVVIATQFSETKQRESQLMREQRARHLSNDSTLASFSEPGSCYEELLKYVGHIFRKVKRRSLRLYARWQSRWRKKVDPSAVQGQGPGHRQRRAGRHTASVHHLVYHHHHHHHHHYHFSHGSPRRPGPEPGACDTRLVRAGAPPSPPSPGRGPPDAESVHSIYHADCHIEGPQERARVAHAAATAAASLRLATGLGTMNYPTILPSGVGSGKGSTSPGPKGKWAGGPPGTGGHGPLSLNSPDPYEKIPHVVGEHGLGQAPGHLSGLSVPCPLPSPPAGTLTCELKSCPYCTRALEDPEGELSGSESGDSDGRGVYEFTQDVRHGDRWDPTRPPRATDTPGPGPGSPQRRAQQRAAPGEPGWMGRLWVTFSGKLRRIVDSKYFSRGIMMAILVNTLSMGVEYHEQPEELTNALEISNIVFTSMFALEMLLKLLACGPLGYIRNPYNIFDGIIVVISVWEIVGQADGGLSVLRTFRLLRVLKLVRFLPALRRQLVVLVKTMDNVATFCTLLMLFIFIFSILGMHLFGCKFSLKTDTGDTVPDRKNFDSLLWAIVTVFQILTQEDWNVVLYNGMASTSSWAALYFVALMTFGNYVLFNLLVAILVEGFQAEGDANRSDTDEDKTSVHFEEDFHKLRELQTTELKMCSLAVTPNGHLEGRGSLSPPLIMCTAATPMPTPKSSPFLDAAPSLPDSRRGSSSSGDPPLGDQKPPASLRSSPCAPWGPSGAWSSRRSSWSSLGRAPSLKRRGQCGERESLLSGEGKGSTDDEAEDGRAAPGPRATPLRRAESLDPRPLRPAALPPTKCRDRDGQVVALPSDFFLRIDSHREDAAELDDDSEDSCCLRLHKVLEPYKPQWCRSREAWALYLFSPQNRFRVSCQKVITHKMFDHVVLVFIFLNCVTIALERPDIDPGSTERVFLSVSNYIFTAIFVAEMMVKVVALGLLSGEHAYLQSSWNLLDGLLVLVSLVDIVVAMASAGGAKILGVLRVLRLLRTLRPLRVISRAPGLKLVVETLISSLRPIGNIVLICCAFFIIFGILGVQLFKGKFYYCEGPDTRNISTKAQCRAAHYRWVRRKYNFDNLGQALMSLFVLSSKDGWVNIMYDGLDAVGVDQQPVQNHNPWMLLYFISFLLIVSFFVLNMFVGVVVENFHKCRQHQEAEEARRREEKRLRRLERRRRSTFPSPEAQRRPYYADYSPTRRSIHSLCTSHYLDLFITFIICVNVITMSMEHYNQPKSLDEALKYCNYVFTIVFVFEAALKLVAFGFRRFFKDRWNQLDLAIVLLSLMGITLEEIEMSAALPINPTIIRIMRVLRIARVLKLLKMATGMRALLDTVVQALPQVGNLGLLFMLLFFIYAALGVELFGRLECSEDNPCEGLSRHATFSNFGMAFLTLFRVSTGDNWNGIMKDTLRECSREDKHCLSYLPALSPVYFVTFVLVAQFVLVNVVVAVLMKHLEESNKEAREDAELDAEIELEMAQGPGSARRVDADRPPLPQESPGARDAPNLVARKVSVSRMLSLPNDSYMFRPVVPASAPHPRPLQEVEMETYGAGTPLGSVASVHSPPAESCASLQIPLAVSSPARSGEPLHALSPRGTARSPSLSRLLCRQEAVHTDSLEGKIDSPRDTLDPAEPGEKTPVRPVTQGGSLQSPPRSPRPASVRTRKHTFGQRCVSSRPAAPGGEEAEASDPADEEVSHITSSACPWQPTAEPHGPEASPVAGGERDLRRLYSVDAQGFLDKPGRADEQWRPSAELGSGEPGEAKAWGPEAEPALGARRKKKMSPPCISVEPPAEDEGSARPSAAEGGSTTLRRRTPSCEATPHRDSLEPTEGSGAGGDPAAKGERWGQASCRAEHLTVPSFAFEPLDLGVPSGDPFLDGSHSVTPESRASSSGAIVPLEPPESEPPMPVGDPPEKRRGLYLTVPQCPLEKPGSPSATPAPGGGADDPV

## CC(C)(C)CCN1CCC[C@@H](NC(=O)COc2ccc(F)cc2Cl)C1
[1]
  EC50: 10 µM (active)

## CC[C@](C)(C(=O)NC1CCCCC1)N(Cc1ccco1)C(=O)c1ccccn1
[2]
  IC50: > 32 µM (inactive)
[3]
  EC50: 0.151 µM (active)
[4]
  IC50: > 32 µM (inactive)

## N#CC1=C(N)Oc2c(ccc3ccccc23)C1c1cccs1 (configuration not stated)
[5]
  EC50: 5.47 µM (inconclusive)
[6]
  EC50: 0.246 µM (inconclusive)
[7]
  EC50: 0.885 µM (active)
[8]
  EC50: 9.28 µM (inconclusive)
[9]
  EC50: 0.739 µM (active)
[10]
  EC50: < 0.1 µM (active)
[11]
  EC50: 0.246 µM (active)
[12]
  EC50: 9.47 µM (active)
[13]
  EC50: 9.28 µM (active)
[14]
  EC50: 0.474 µM (active)
[15]
  EC50: 0.162 µM (active)
[16]
  EC50: 0.162 µM (inconclusive)
[17]
  IC50: 1.86 µM (active)

From ChEMBL document CHEMBL1201862, “PubChem BioAssay data set” (2004)
